Data published in US20230220047A1, “PEPTIDES FOR TREATMENT OF SEPSIS AND CANCER” (NORWEGIAN UNIVERSITY OF SCIENCE AND TECHNOLOGY (NTNU), priority 2020, published 2023).

How the values were obtained:
primary human monocytes = assay: Confocal analysis of E. coli particle uptake by primary human monocytes; assay type: cell-based; conditions: 3 μM, similar extent as P7-Pen
Description: Cells were pre-incubated with Pen or P7-Pen peptides, followed by addition of Alexa Fluor 488-labeled bioparticles for the times indicated (15, 30 or 45 min). Fluorescent bacteria particles were counted by spot-detection in Bitplane Imaris imaging software and used to calculate the number of particles per cell. […] Pre-incubation with 3 μM cytochalasin D (CytoD, and inhibitor of actin polymerization) inhibited uptake of E. coli to a similar extent as P7-Pen.
THP-1 cells, THP-1^cherry cells or human PBMC were seeded in 24-well glass-bottom plates (MatTek Corporation), 125,000 cells/well. The THP-1 cells were differentiated into macrophages with 60 ng/ml PMA for 72 h and thereafter rested for 48 h, whereas the PBMC were used the day after isolation. The P7-penatratin peptide or control peptide was added to the cells 30 min before stimulation at 15 μM concentration. If used, 3 μM cytochalasin D (CytoD) was added simultaneously. […] A spot detection mode in the Bitplan Imaris software was used to define individual phagosomes and cells were counted manually. […] Fluorescence voxel intensity of TRAM^cherry at the phagosome is also presented. Statistical significance was calculated in GraphPad Prism by One-way ANOVA Kruskal-Wallis multiple comparison test. […]

TLR4 [1] = assay: qPCR of TLR4-mediated cytokine expression in B6 immortalised murine macrophages; assay type: cell-based, mouse; conditions: 10 μM, 1 h pre-treatment, LPS 100 ng/ml
Description: Cells were pre-treated with 10 μM peptides in cell culture media for 1 h, and stimulated with LPS (100 ng/ml) for increasing lengths of time.
Immortalized bone-derived-macrophages (iBMDM) from wild type, Tram−/− or TIr4−/− C57BL/6 mice were maintained at 37° C. and 5% CO2 in DMEM supplemented with 10% FCS.
(§1) Total RNA was isolated from the cells using Qiazol reagent #79306 from QIAGEN, and chloroform extraction followed by purification on RNeasy Mini columns with DNAse digestion (Qiagen). cDNA was prepared using the Maxima First Strand cDNA Synthesis Kit for quantitative real-time polymerase chain reaction (RT-qPCR) (Thermo Fisher Scientific) according to the manufacturer's protocol. qPCR was performed using the PerfeCTa qPCR FastMix (Quanta Biosciences) in replicates and cycled in a StepOnePlus™ Real-Time PCR cycler. The following TaqMan® Gene Expression Assays (Applied Biosystems®) were used: IFNβ (Hs01077958_s1), TNF (Hs00174128_m1), TBP (Hs00427620_m1), CXCL10 (Hs01124251_g1), IL-6 (Hs00174131_m1) and IL-1β (Hs01555410_m1), for human cells; Ifnβ (Mm00439552_s1), Tnf (Mm00443258_m1), Tbp (Mm01277042_m1) and II-1β (Mm00434228_m1), for mouse cells. No RT controls were negative. The level of TBP mRNA was used for normalisation and results presented as relative expression compared to the control untreated sample. Relative expression was calculated using Pfaffl's mathematical model (Pfaffl, Nucleic Acids Research 29(9): e45, 2001). Results are presented as the mean and SD expression fold change for biological replicates relative to non-stimulated cells. Statistical significance was evaluated in GraphPad Prizm 5.03. Data distribution was assumed to be normal but this was not formally tested. The difference between the two groups was determined by two-tailed t test.
We proceeded with cellular assays to address the effect of peptide pre-treatment on TLR4-mediated cytokine expression in B6 immortalised murine macrophages (FIG. 13). Tested peptides had no cytotoxic effect on B6 murine macrophages (FIG. 13A).

THP-1 cells = assay: LDH cytotoxicity assay in THP-1 cells; conditions: CPP screen, 15 μM, 30 min pre-treatment, LPS 100 ng/ml
Description: For every assay, separate wells were seeded for the required controls (Spontaneous LDH Release Controls and Maximum LDH Release Control) with the same amount of cells as used for peptide treatments. All supernatants were analysed in triplicate with the average value of technical replicates taken into calculations.
THP-1 cells were pre-treated with increasing concentrations of P7-Arg11 and control peptide Arg11 for 1 h (FIG. 3).

TLR4 [2] = assay: Western blot of LPS signalling in THP-1 cells and primary human monocytes; assay type: cell-based; conditions: data not shown
Description: (§2) Protein pellets were dissolved by heating protein pellets for 10 min at 95° C. in buffer containing 4 M urea, 1 SDS (Sigma) and NuPAGE® LDS Sample Buffer (4×) (Thermo Fisher Scientific). Otherwise, lysates were made using 1× RIPA lysis buffer (150 mM NaCl, 50 mM TrisHCl (pH 7.5), 1% Triton X100, 5 mM EDTA, protease inhibitors, phosphatase inhibitors). For Western blot analysis we used pre-cast protein gels NuPAGE™ Novex™ and iBlot Transfer Stacks iBlot Gel Transfer Device (Thermo Fisher Scientific). Proteins were transferred to the membrane by dry-blotting using iBlot® 2 NC Regular/Mini Stacks (Life Technologies) in the iBlot 2 Dry Blotting System (Life Technologies). After secondary antibody incubation, membranes were washed and incubated with HRP substrate solution (SuperSignal™ West Femto Maximum Sensitivity Substrate (Thermo Fisher Scientific)). Images were taken using Odyssey® Fc (LI-CORE). Quantification graphs were generated by the analysis of signal intensities for protein bands (protein of interest and endogenous loading control—β-tubulin from the same membrane) using Odyssey software (LI-CORE). Data were normalised to the expression levels of β-tubulin and presented as a relative fold change to the control sample.
Further, we tested the effect of P7-Pen on phosphorylation of p38 MAPK, IκBα degradation and modification of IRAK1 in human macrophages (THP-1 cells) and primary human monocytes. P7-Pen inhibited LPS-mediated phosphorylation of p38 MAPK (FIG. 24A) and inhibited IRAK1 ubiquitination/phosphorylation (visualised as band shift to higher molecular weight) in primary monocytes (FIG. 24B).

[3] = test system: ANBL-6 multiple myeloma cells; assay: CellTiter-Glo cell viability assay, ANBL-6; assay type: cell-based; conditions: 20 μM, 48 h
Description: Minor effects on the proliferation of the IH-1 and RPMI 8226 cell lines are seen. Cells were seeded at the level shown (left-hand bar of each set) then incubated in medium containing water, 10 μM penetratin or 10 μM P7-A4-Pen for 48 hr (except for INA-6 cells, which were incubated with 12.5 μM penetratin or 12.5 μM P7-A4-Pen). The number of viable cells was detected based on quantitation of ATP by luminescent signal in correlation to a standard curve prepared for each cell line. Results are based on 3-5 biological replicates for each condition, error bars show standard deviation of mean.
Cells were seeded and then incubated in growth medium alone or supplemented with water, DMSO, 15 μM penetratin or 15 μM investigational peptide. The growth medium only and H2O—, DMSO- and penetratin-supplemented cultures constituted controls.
The solid horizontal lines show the amount of cells originally seeded. In (A) ANBL-6 cells were seeded at a level of 10,000 cells/well, then incubated in medium supplemented with water, the control peptide C3A-Pen, P7-Pen, P7-A4-Pen, P7-N4-Pen or P7-K2-Pen for 48 hours. The peptides were included at concentrations of 5, 10, 12.5, 15, 20 or 30 μM. Cells were counted at 48 hours. In (B), ANBL-6 cells were seeded at a level of 5000 cells/well, then incubated in medium supplemented with water, P6-Pen, P-P6-Pen, P7-D4-Pen or P7-A4-Pen for 48 hours. Peptides were included at concentrations of 5, 10 or 20 μM. Cells were counted at 48 hours. […] Results are based on 3 biological replicates, error bars show standard deviation of mean.
Multiple myeloma cells JJN-3 (DSMZ (Germany) no. ACC 541), ANBL-6 (Cellosaurus accession number CVCL_5425, obtained from Dr Diane Jelinek, Mayo Clinic, Rochester, Minn.), INA-6 (Cellosaurus accession number CVCL_5209, obtained from Dr M. Gramatzki, University of Erlangen-Nurnberg, Erlangen, Germany), RPMI-8226 (ATCC CCL-155), and IH-1 (Cellosaurus accession number CVCL_WZ44, established from the pleural effusion of a myeloma patient by Myeloma research group, IKOM, NTNU, Trondheim, Norway) were grown in RPMI-1640 (Sigma-Aldrich Norway, Oslo, Norway) supplemented with 100 nM penicillin/streptomycin and 10% FCS, and for ANBL-6, IH-1 and INA-6 cells 2 ng/ml recombinant IL-6 (Gibco, Thermo Fisher Scientific, Waltham, Mass., USA). Murine multiple myeloma Vk*MYC cells were obtained from M.D. Leif Bergsagel (Mayo Clinic, Richester, Minn., USA) and cultured in RPMI-1640 supplemented with 2% human serum (B^+, The blood bank, St Olav's Hospital, Trondheim, Norway), 100 nM penicillin/streptomycin, L-Glutamine (2 mM) and recombinant IL-6 (1 ng/ml). HEK293T (ATCC CRL-3216) were cultured in DMEM with 10% FCS. THP-1 TRAM knockout (KO) and TLR4 KO cell lines, and matching lentivirally transduced control cell lines, were differentiated in the same way as wild type (WT) THP-1. TRAM KO THP-1 cell line is described in Yurchenko et al. (supra).
To evaluate the potential impact of the P7 peptide on proliferation of tumour cells of lymphoid origin, we performed a CellTiter-Glo Luminescent Cell Viability Assay to address proliferation of several multiple myeloma (MM) cell lines. For the assay, cells were incubated for 48 h in respective media containing either solvent (water), 10 μM control peptide (Pen) or the SLAMF1-derived peptide P7-A4-Pen for 48 h (FIG. 32) (with the exception of the INA-6 cells which were incubated with 12.5 μM control peptide or P7-A4-Pen). […] This effect could be mediated by P7-A4-Pen-induced inhibition of signalling pathways that are crucial for driving proliferation and/or survival of MM tumour cells.

SLAMF1-TRAM interaction = biological target: T1, SLAMF1-TRAM interaction (Homo sapiens, UniProt Q86XR7); assay: Co-precipitation of SLAMF1 and TRAM^Flag in the presence of ECFP-tagged peptides; assay type: binding; conditions: N-terminal ECFP-tagged peptides, HEK-293T lysates, anti-Flag IP
T1 construct: expressed in transfected cells; host or cells: HEK-293T
Excerpt: (A) Western blot analysis of SLAMF1 and TRAM^Flag co-precipitated in the presence of CFP-tagged peptides. TRAM^Flag was precipitated from cell lysates on agarose beads and distributed across 15 tubes. […] Unbound proteins/peptides were removed by a washing step, and pecipitates analysed by WB (anti-Flag IPs). Reduced SLAMF1 binding to TRAM indicates inhibition of the TRAM/SLAMF1 interaction by the peptide. (B) Sequences of the peptides that were expressed as ECFP-tagged proteins (N-terminal ECFP). Peptides 4 and 5 are not shown and were not pursued.
HEK293T cells expressing Flag-tagged proteins were lysed using 1×lysis buffer (150 mM NaCl, 50 mM TrisHCl (pH 8.0), 1 mM EDTA, 1% NP40), supplemented with EDTA-free Complete Mini protease Inhibitor Cocktail Tablets and PhosSTOP phosphatase inhibitor cocktail from Roche, 50 mM NaF and 2 mM […] (Sigma). IPs were carried out by rotation of cell lysates at 4° C. for 2 h with anti-flag (M2) agarose (Sigma). Beads were washed 5 times with lysis buffer and heated for 5 min with 1×NuPAGE® LDS Sample Buffer (Thermo Fisher Scientific) before analysis of precipitates by Western blotting. […]
Inhibition of the TRAM-SLAMF1 interaction using SLAMF1-derived peptides was tested. For the first line of experiments, SLAMF1-derived peptides were co-expressed as N-terminal ECFP-tagged proteins together with SLAMF1 and TRAM^FLAG constructs in HEK-293T cells.

TLR4 [4] = assay: qPCR of LPS-mediated cytokine mRNA expression in THP-1 macrophages; assay type: cell-based, human; conditions: 15 μM
Description: SW480 (ATCC CCL-228) and Jurkat (ATCC Clone E6-1; TIB-152) cells were cultured in RPMI 1640 (Sigma-Aldrich, Schnelldorf, Germany) supplemented with 10% heat-inactivated FCS, penicillin/streptomycin (Life Technologies) and 20 mM L-Glutamine. THP-1 cells (ATCC TIB-202) were cultured in RPMI-1640 (high-glucose, ATCC) supplemented with 10% heat inactivated foetal calf serum (FCS), 100 nM penicillin/streptomycin and 5 μM β-mercaptoethanol (Sigma). THP-1 cells were differentiated with 60 ng/ml phorbol 12-myristate 13-acetate (PMA, Sigma) for 72 h, followed by 24 or 48 h in medium without PMA.
as §1

STAT1 = assay: Western blot of STAT1 phosphorylation in LPS-stimulated THP-1 cells; assay type: cell-based, human; conditions: 15 μM, compared to control peptide
Description: as §2

T1 sequence (Q86XR7 whole entry): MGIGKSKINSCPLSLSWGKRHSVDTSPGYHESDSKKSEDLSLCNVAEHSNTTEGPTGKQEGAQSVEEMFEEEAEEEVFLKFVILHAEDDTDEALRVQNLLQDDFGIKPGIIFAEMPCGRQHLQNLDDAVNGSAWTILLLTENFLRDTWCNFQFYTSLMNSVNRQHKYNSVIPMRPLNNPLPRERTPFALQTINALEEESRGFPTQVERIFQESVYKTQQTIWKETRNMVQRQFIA

With `C=C1[C@@H](C)[C@H]2[C@H](Cc3ccccc3)NC(=O)[C@]23[C@H](OC(C)=O)/C=C/[C@@](C)(O)C(=O)[C@@H](C)C/C=C/[C@H]3[C@@H]1O` [cytochalasin D, reference compound] the “uptake of E. coli” value (primary human monocytes) was “inhibited”.
For “Ac-ITVYASVTLTGKLALKLALKALKAALKLA-NH2 [Peptide P7-KLA]”, the “TLR4-mediated Ifnβ, Tnf and Il-1β mRNA expression” value (TLR4 [1]) was “strongly inhibited” and the “reduction of LPS-mediated toxicity (LDH assay)” value (THP-1 cells) was “most effective”.
“ITVYASVTATGRQIKIWFQNRRMKWKK (P7-A9-Pen) [Peptide P7-A9-Pen]” was tested, and the “pattern of inhibition of p38 MAPK phosphorylation and IRAK1 modification as seen with P7-Pen” value (TLR4 [2]) was “inactive”.
“P6: SEQ ID NO: 2; amino acid sequence of SLAMF1 positions 324-333 (ITVYASVTLP; listed as Homo sapiens) [Peptide P6]” was tested, and the “anti-proliferative activity at the highest tested concentration” value [3] was “moderate anti-proliferative” and the “inhibitory effect on SLAMF1-TRAM co-precipitation” value (SLAMF1-TRAM interaction) was “highest efficacy”.
With “TNSITVYASVTLTESGRRRRRRRRRRR (P3-Arg11) [Peptide P3-Arg11]” the “LPS-mediated cytokine mRNA expression” value (TLR4 [4]) was “not effective” and the “phosphorylation of STAT1 upon LPS stimulation” value (STAT1) was “no effect”.
